Experimental data as given in patent US20070128217A1 (priority 2003, published 2007).

Tests used:
[1] = system: rabbit serum obtained by immunizing a rabbit with the SARS-CoV strain Frankfurt 1; type: binding; design: Binding of a rabbit serum to linear peptides / Binding of a rabbit serum to looped peptides / Rabbit serum linear peptides / Rabbit serum looped peptides / Binding of a rabbit serum to linear peptides of protein N of SARS-CoV Urbani (Rabbit serum linear peptides) / Binding of a rabbit serum to looped/cyclic peptides of protein N of SARS-CoV Urbani (Rabbit serum looped peptides): unit not given here
[2] = system: antibodies in sera from SARS patients (sera 1a, 1b, 2, 6, 37, 62, London, SARS-yellow, SARS-green); type: binding, human; design: Binding of serum 6 to linear peptides of protein X1 of SARS-CoV Urbani / Binding of serum 37 to linear peptides of protein X1 of SARS-CoV Urbani / Binding of serum 6 to looped/cyclic peptide (PEPSCAN-ELISA) / Binding of serum 37 to looped/cyclic peptide (PEPSCAN-ELISA) / Binding of serum 37 to looped/cyclic peptides of protein X1 of SARS-CoV Urbani / Binding of serum 6 to linear peptides of protein X2 / Binding of serum 37 to linear peptides of protein X2 / Binding of serum 37 to looped/cyclic peptides of protein X2 of SARS-CoV Urbani / Binding of serum 6 to linear peptides of protein M of SARS-CoV Urbani / Binding of serum 37 to linear peptides of protein M of SARS-CoV Urbani / Binding of serum 6 to looped/cyclic peptides of protein M of SARS-CoV Urbani / Binding of serum 37 to looped/cyclic peptides of protein M of SARS-CoV Urbani / Binding of serum 6 to linear peptides of protein X3 of SARS-CoV Urbani / Binding of serum 37 to linear peptides of protein X3 of SARS-CoV Urbani / Binding of serum 37 to looped/cyclic peptides of protein X3 of SARS-CoV Urbani / Binding of serum 6 to linear peptides of protein X4 of SARS-CoV Urbani / Binding of serum 37 to linear peptides of protein X4 of SARS-CoV Urbani / Binding of serum 37 to looped/cyclic peptides of protein X4 of SARS-CoV Urbani / Binding of serum 6 to linear peptides of protein X5 of SARS-CoV Urbani / Binding of serum 37 to linear peptides of protein X5 of SARS-CoV Urbani / Binding of serum 37 to looped/cyclic peptides of protein X5 of SARS-CoV Urbani / Binding of serum 6 to linear peptides of protein N of SARS-CoV Urbani / Binding of serum 37 to linear peptides of protein N of SARS-CoV Urbani / Binding of serum 6 to linear peptide (PEPSCAN-ELISA) / Binding of serum 1a to looped/cyclic peptides of protein N of SARS-CoV Urbani / Binding of serum 1b to looped/cyclic peptides of protein N of SARS-CoV Urbani / Binding of serum 2 to looped/cyclic peptides of protein N of SARS-CoV Urbani / Binding of serum 6 to looped/cyclic peptides of protein N of SARS-CoV Urbani / Binding of serum 37 to looped/cyclic peptides of protein N of SARS-CoV Urbani / Binding of serum 62 to looped/cyclic peptides of protein N of SARS-CoV Urbani / Binding of serum London to looped/cyclic peptides of protein N of SARS-CoV Urbani / Binding of serum SARS-green to looped/cyclic peptides of protein N of SARS-CoV Urbani: unit not given here
[3] = system: control sera (pooled serum of ten healthy LUMC hospital workers; commercial negative donor pooled serum from the Dutch bloodbank); type: binding, human; design: Binding of Control serum LUMC to linear peptides / Binding of Control serum Blood-bank to linear peptides / Binding of Control serum LUMC to looped peptides / Binding of Control Serum Blood-Bank to Looped peptides / Binding of Control serum LUMC to linear peptides of the protein M of SARS-CoV Urbani / Binding of Control serum Blood-bank to linear peptides of the protein M of SARS-CoV Urbani / Binding of Control serum LUMC to looped peptides of the protein M of SARS-CoV Urbani / Binding of Control Serum Blood-Bank to Looped peptides of the protein M of SARS-CoV Urbani: unit not given here
[4] = system: recombinant human anti-SARS-CoV antibody 03-018; type: binding; design: Binding of antibody 03-018 to linear peptides of the N protein of SARS-CoV Urbani / Binding of antibody 03-018 to looped/cyclic peptides of the N protein of SARS-CoV Urbani: unit not given here

Row | Sequence | Binding of a rabbit serum to linear peptides of protein N of SARS-CoV Urbani (Rabbit serum linear peptides) [1] | Binding of a rabbit serum to looped/cyclic peptides of protein N of SARS-CoV Urbani (Rabbit serum looped peptides) [1] | Binding of serum 1a to linear peptides of protein N of SARS-CoV Urbani [2] | Binding of serum 1a to looped/cyclic peptides of protein N of SARS-CoV Urbani [2] | Binding of serum 1b to linear peptides of protein N of SARS-CoV Urbani [2] | Binding of serum 1b to looped/cyclic peptides of protein N of SARS-CoV Urbani [2] | Binding of serum 2 to linear peptides of protein N of SARS-CoV Urbani [2] | Binding of serum 2 to looped/cyclic peptides of protein N of SARS-CoV Urbani [2] | Binding of serum 6 to linear peptides of protein N of SARS-CoV Urbani [2] | Binding of serum 6 to looped/cyclic peptides of protein N of SARS-CoV Urbani [2] | Binding of serum 37 to linear peptides of protein N of SARS-CoV Urbani [2] | Binding of serum 37 to looped/cyclic peptides of protein N of SARS-CoV Urbani [2] | Binding of serum 62 to linear peptides of protein N of SARS-CoV Urbani [2] | Binding of serum 62 to looped/cyclic peptides of protein N of SARS-CoV Urbani [2] | Binding of serum London to linear peptides of protein N of SARS-CoV Urbani [2] | Binding of serum London to looped/cyclic peptides of protein N of SARS-CoV Urbani [2] | Binding of serum SARS-green to looped/cyclic peptides of protein N of SARS-CoV Urbani [2] | Binding of serum SARS-yellow to looped/cyclic peptides of protein N of SARS-CoV Urbani [2] | Binding of antibody 03-018 to linear peptides of the N protein of SARS-CoV Urbani [4] | Binding of antibody 03-018 to looped/cyclic peptides of the N protein of SARS-CoV Urbani [4] | other results
1 | AYKTFPPTEPKKDKK | 0.2 | 0.0 | 0.2 | 0.1 | 0.1 | 0.1 | 0.3 | 0.2 | 0.2 | 0.0 | 0.7 | 0.2 | 0.8 | 0.1 | 0.6 | 0.1 | 0.0 | 0.0 | 0.1 | 0.1 | Binding of serum SARS-green to linear peptides of protein N of SARS-CoV Urbani [2]: 0.3; Binding of serum SARS-yellow to linear peptides of protein N of SARS-CoV Urbani [2]: 0.7; Control Serum Blood-Bank Looped peptides [3]: 0.3; Control serum Blood-bank linear peptides [3]: 0.7; Control serum LUMC linear peptides [3]: 0.6; Control serum LUMC looped peptides [3]: 0.1
2 | DNGPQSNQRSAPRIT | 0.1 | 0.3 | 0.2 | 0.2 | 0.1 | 0.1 | 0.3 | 0.1 | 0.2 | 0.2 | 0.6 | 0.5 | 0.5 | 0.3 | 0.4 | 0.2 | 0.2 | 0.1 | 0.2 | 0.3 | Binding of serum SARS-green to linear peptides of protein N of SARS-CoV Urbani [2]: 0.4; Binding of serum SARS-yellow to linear peptides of protein N of SARS-CoV Urbani [2]: 0.5; Binding of Control Serum Blood-Bank to Looped peptides [3]: 0.5; Binding of Control serum Blood-bank to linear peptides [3]: 0.7; Binding of Control serum LUMC to linear peptides [3]: 0.7; Binding of Control serum LUMC to looped peptides [3]: 0.4
3 | RSRGNSRNSTPGSSR | 0.4 | 1.1 |  | 0.3 |  | 0.1 |  | 0.2 |  | 0.2 |  | 0.2 |  | 0.1 |  | 0.2 | 0.1 | 0.1 | 0.1 | 0.2 | Binding of serum 1a to linear peptide (PEPSCAN-ELISA) [2]: 0.7; Binding of serum 1b to linear peptide (PEPSCAN-ELISA) [2]: 0.4; Binding of serum 2 to linear peptide (PEPSCAN-ELISA) [2]: 0.2; Binding of serum 6 to linear peptide (PEPSCAN-ELISA) [2]: 0.2; Binding of serum 37 to linear peptide (PEPSCAN-ELISA) [2]: 0.7; Binding of serum 62 to linear peptide (PEPSCAN-ELISA) [2]: 0.6; Binding of serum London to linear peptide (PEPSCAN-ELISA) [2]: 0.5; Binding of serum SARS-green to linear peptide (PEPSCAN-ELISA) [2]: 0.2; Binding of serum SARS-yellow to linear peptide (PEPSCAN-ELISA) [2]: 0.6; Binding of Control Serum Blood-Bank to Looped peptides [3]: 0.3; Binding of Control serum Blood-bank to linear peptides [3]: 0.8; Binding of Control serum LUMC to linear peptides [3]: 0.6; Binding of Control serum LUMC to looped peptides [3]: 0.3
4 | DGKMKELSPRWYFYY | 0.1 | 0.6 | 0.2 | 0.4 | 0.1 | 0.3 | 0.2 | 0.5 | 0.1 | 0.4 | 0.5 | 0.8 | 0.5 | 0.7 | 0.4 | 0.5 | 0.4 | 0.5 | 0.1 | 0.2 | Binding of serum SARS-green to linear peptides of protein N of SARS-CoV Urbani [2]: 0.4; Binding of serum SARS-yellow to linear peptides of protein N of SARS-CoV Urbani [2]: 0.5; Binding of Control Serum Blood-Bank to Looped peptides [3]: 0.8; Binding of Control serum Blood-bank to linear peptides [3]: 0.8; Binding of Control serum LUMC to linear peptides [3]: 0.6; Binding of Control serum LUMC to looped peptides [3]: 0.7
